Measurements reported in patent publication US20200131156A1, “ARYLSULFONYLPYROLECARBOXAMIDE DERIVATIVES AS Kv3 POTASSIUM CHANNEL ACTIVATORS” (H. Lundbeck A/S, priority 2018, published 2020).

Target: T1, human Kv3.2 (Homo sapiens, UniProt Q96PR1)
T1 construct: expressed in transfected cells
T1 sequence (Q96PR1 1-638): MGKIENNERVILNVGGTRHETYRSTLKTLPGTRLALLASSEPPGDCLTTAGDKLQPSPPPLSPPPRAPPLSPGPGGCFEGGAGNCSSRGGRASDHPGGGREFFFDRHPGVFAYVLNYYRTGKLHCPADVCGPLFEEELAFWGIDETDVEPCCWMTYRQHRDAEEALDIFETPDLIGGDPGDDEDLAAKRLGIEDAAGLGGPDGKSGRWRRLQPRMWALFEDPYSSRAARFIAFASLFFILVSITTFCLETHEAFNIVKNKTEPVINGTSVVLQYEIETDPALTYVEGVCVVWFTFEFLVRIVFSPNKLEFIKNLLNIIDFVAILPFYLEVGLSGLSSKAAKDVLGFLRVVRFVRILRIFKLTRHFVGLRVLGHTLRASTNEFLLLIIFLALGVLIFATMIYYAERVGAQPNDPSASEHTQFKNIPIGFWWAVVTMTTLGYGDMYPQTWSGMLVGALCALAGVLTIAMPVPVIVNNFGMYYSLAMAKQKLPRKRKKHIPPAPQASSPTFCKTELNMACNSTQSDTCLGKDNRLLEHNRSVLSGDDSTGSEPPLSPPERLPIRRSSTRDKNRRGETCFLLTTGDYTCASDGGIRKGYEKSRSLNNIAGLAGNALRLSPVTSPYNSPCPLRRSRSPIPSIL
Assay: Manual patch clamp electrophysiology, HEK-293 cells stably expressing human Kv3.2
Format: cell-based
Conditions: for hKv3.2 ECΔ30% increase: concentration increasing current by 30% at the −10 mV step; for hKv3.2 ECΔ5 mV: concentration that shifts activation threshold by 5 mV
Protocol: Manual Patch Clamp Electrophysiological Evaluation, hKv3.1, hKv3.2, hKv3.3, hKv3.4:
HEK-293 cells stably expressing human Kv3.1b, Kv3.2, Kv3.3 or Kv3.4 were used for the experiments.
Kv3.1b, Kv3.2: Cells were cultured in MEM medium supplemented with 10% Fetal Bovine Serum, 1% Penicillin/Streptomycin, 2 mM glutamine and 0.6 mg/mL geneticin. Cells were grown to 80-90% confluency at 37° C. and 5% CO2 Kv3.3 or Kv3.4: Cells were cultured in DMEM medium supplemented with 10% Fetal Bovine Serum, 500 ug/mL Geneticidin and 1% Penicillin/Streptomycin. Cells were grown to 80-90% confluency at 37° C. and 5% CO2.
On the day of the experiment the cells were detached by TrypLE and resuspended in culture medium. Cells were centrifuged, media removed and the cells were resuspended in extracellular buffer containing (in mM): 130 Na-gluconate, 20 NaCl, 4 KCl, 1 MgCl2, 1.8 CaCl2, 10 HEPES and 5 glucose, pH 7.3 adjusted with NaOH, 310-320 mOsm
Patch-clamp recordings were performed using a manual patch-clamp system (Axon Multiclamp 700B, Digidata 1440, pCLAMP 10, Molecular Devices Corporation) with a fast perfusion system (RSC-160 Rapid solution Changer, BioLogic). Whole-cell recordings were carried out using an intracellular solution containing (in mM): 100 K-gluconate, 40 KCl, 10 HEPES, 1 EGTA, 1 MgCl2, pH 7.2 adjusted with KOH, 290-300 mOsm. Cell membrane potentials were held at −80 mV and current voltage-relationship was generated by voltage steps (50 ms duration) from −100 mV to +10 mV (in 10 mV increments) and then back to −100 mV for 50 ms, with inter-sweep interval of 3 s. The peak current amplitude of −10 mV was monitored until stable (<5% change) by using one step voltage protocol. One IV protocol was run as baseline, then compound perfusion was stared and peak current stability was monitored with single step protocol prior to the IV protocol. Single concentrations were measured per cell. Acceptable cells had seal resistance >500 MOhm, Access resistance <10 MOhm, and leak current <200 pA.
Data analysis was performed using Clampfit (V10.2) in combination with Microsoft Excel™ (Redmond, Wash., USA). Current voltage relationships were plotted from the peak current (baseline subtracted) at the individual voltage steps normalized to the vehicle addition at 10 mV. The voltage threshold for channel activation was defined as 5% activation of the peak current at 10 mV in presence of vehicle. […] The concentration needed to shift the threshold 5 mV was readout from this curve (ECΔ5 mV), as well as the ability to increase the peak current at the −10 mV step (EC30% increase). […]

Structure (SMILES)	hKv3.2 ECΔ30% increase	hKv3.2 ECΔ5 mV
Cc1ccc(S(=O)(=O)n2ccc(C(=O)NCc3ncco3)c2)cc1 [Compound 86, 1-(4-methylbenzene-1-sulfonyl)-N-[(1,3-oxazol-2-yl)methyl]-1H-pyrrole-3-carboxamide]	>30 µM	6.0 µM
Cc1cnc(CNC(=O)c2ccn(S(=O)(=O)c3ccc(F)cc3C)c2)cn1 [Compound 90, 1-(4-fluoro-2-methylbenzene-1-sulfonyl)-N-[(5-methylpyrazin-2-yl)methyl]-1H-pyrrole-3-carboxamide]	8.2 µM	1.5 µM
